Measured values as given in patent US7425577B2, “Lipase-colipase inhibitor” (Forskarpatent 1 SYD AB, priority 2003, dated 2008).

Target: T1, Lipase and colipase, purified from human pancreatic gland (Homo sapiens, UniProt P04118+P16233)
T1 construct: Lipase, Purified from Human Pancreatic Gland; Colipase, Purified from Human Pancreatic Gland; from tissue; host or cells: human pancreatic gland
T1 sequence (P16233 17-465): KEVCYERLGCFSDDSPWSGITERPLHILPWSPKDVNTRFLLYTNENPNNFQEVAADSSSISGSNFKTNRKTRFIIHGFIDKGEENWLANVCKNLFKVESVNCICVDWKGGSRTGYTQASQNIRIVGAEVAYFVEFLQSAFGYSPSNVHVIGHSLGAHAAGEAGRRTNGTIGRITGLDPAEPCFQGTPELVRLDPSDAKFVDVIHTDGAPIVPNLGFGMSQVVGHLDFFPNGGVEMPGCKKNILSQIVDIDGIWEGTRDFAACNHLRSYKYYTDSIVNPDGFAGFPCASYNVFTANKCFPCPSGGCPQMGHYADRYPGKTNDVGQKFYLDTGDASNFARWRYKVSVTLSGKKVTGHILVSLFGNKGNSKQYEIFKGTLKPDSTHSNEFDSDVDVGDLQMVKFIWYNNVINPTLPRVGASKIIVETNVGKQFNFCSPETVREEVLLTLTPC
T1 sequence (P04118 23-112): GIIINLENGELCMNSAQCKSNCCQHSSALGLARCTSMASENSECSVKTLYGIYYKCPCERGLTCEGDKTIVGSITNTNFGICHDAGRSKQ
Assay: Determination of lipolysis by colipase/lipase (pH-stat, tributyrine emulsion with NaTDC)
Type: biochemical
From the text: Determination of Lipolysis by Colipase/Lipase
The most important enzyme in the gastro-intestinal tract being responsible for the hydrolysis of lipids/fats in the gastro-intestinal tract is lipase, pancreatic lipase, together with its protein cofactor colipase. These are two proteins, which are secreted from the pancreatic gland. […] The colipase binds to lipase in a molar 1:1 complex and then moves the complex to the triglyceride surface. In the binding between lipase and colipase hydrogen bonds are present, between arg38 of the colipase and ser343 of the lipase and from glu15 of the colipase and the asn241 of the lipase molecules. In the binding of colipase to the substrate (the lipids/fat) there are both hydrophobic bonds as well as ion-ion bonds present. By an isolated lack of colipase it has been shown that colipase has a decisive role for the lipolysis in the gastro-intestinal tract of humans. Pure lipase and colipase have been produced in accordance with the following.
Lipase, Purified from Human Pancreatic Gland
Colipase, Purified from Human Pancreatic Gland
0.5 ml of tributyrine is mixed with 15 ml of a buffer containing 1 mM CaCl2, 150 mM NaCl, 2 mM tris-maleate, pH 7.0 and 4 mM NaTDC (sodium taurodeoxycholate). An emulsion is obtained by continuous stirring. pH is titrated by means of a pH-state, where 0.1 N NaOH is added automatically to keep an constant pH. 10 μl of lipase is added from a stock solution containing 70 units of lipase/ml, followed by 10 μl of colipase from a stock solution containing 1 mg colipase/ml. An activity is registered which is determined to be 100%. An addition of an inhibitor is then made. A new assay is used for every concentration, prepared in the same way. The inhibition is registered as percentage of control. A dose-response plot is obtained for the compounds having an inhibiting ability.

**Q.** Which results are given for CCCCCCCCCCCCCCN(C)C [N,N-dimethyl tetradecyl amine]?
**A.** Activity Inhibitor (amount of inhibitor 1.04 μmol, control activity 0.226): 0.179 µmol/min; Activity Inhibitor (amount of inhibitor 2.07 μmol, control activity 0.243): 0.121 µmol/min; Activity Inhibitor (amount of inhibitor 4.14 μmol, control activity 0.223): 0.056 µmol/min; Activity Inhibitor (amount of inhibitor 7.25 μmol, control activity 0.257): 0.045 µmol/min; Activity Inhibitor (amount of inhibitor 10.35 μmol, control activity 0.282): 0.033 µmol/min; Activity Inhibitor (amount of inhibitor 15.53 μmol, control activity 0.256): 0 µmol/min

**Q.** For CCCCCCCCCCCCOCCOCCOCCOCCOCCOCCN(C)C [dimethylaminoethyl pentaethyleneglycol dodecyl ether], which “Activity Inhibitor” value (amount of inhibitor 0.26 μmol, control activity 0.307) is on record?
**A.** The value was 0.273 µmol/min.

**Q.** What about the “Activity Inhibitor” value (amount of inhibitor 0.52 μmol, control activity 0.29) of the same compound?
**A.** Its value is 0.236 µmol/min.

**Q.** What about the “Activity Inhibitor” value (amount of inhibitor 1.05 μmol, control activity 0.302) of the same compound?
**A.** Its value is 0.222 µmol/min.

**Q.** And the “Activity Inhibitor” value (amount of inhibitor 2.62 μmol, control activity 0.299)?
**A.** The value was 0.13 µmol/min.

**Q.** And the “Activity Inhibitor” value (amount of inhibitor 5.23 μmol, control activity 0.314)?
**A.** The value was 0.083 µmol/min.

**Q.** And the “Activity Inhibitor” value (amount of inhibitor 7.85 μmol, control activity 0.312)?
**A.** The value was 0.04 µmol/min.

**Q.** And the “Activity Inhibitor” value (amount of inhibitor 10.46 μmol, control activity 0.3)?
**A.** The value was 0.015 µmol/min.

**Q.** And the “Activity Inhibitor” value (amount of inhibitor 15.69 μmol, control activity 0.319)?
**A.** Its value is 0.009 µmol/min.

**Q.** And the “Activity Inhibitor” value (amount of inhibitor 20.92 μmol, control activity 0.282)?
**A.** Its value is 0 µmol/min.

**Q.** With CCCCCCCCCCCCOCCOCCOCCOCCOCCOCCOCCOCCOCCN(CCC)CCC [dipropylaminoethyl octaethyleneglycol dodecyl ether] as the compound, how does the “Activity Inhibitor” value (amount of inhibitor 0.2 μmol, control activity 0.256) read?
**A.** Its value is 0.256 µmol/min.

**Q.** What about the “Activity Inhibitor” value (amount of inhibitor 0.4 μmol, control activity 0.28) of the same compound?
**A.** The value was 0.256 µmol/min.

**Q.** What about the “Activity Inhibitor” value (amount of inhibitor 0.8 μmol, control activity 0.259) of the same compound?
**A.** The value was 0.209 µmol/min.

**Q.** And the “Activity Inhibitor” value (amount of inhibitor 2.01 μmol, control activity 0.25)?
**A.** Its value is 0.136 µmol/min.

**Q.** What about the “Activity Inhibitor” value (amount of inhibitor 4.02 μmol, control activity 0.246) of the same compound?
**A.** The value was 0.096 µmol/min.

**Q.** What about the “Activity Inhibitor” value (amount of inhibitor 8.04 μmol, control activity 0.244) of the same compound?
**A.** Its value is 0.033 µmol/min.

**Q.** And the “Activity Inhibitor” value (amount of inhibitor 12.06 μmol, control activity 0.252)?
**A.** The value was 0.011 µmol/min.

**Q.** What about the “Activity Inhibitor” value (amount of inhibitor 16.08 μmol, control activity 0.247) of the same compound?
**A.** Its value is 0 µmol/min.

**Q.** With CCCCCCCCOCCN(C)C [dimethylaminoethyl octyl ether] as the compound, how does the “Activity Inhibitor” value (amount of inhibitor 2.49 μmol, control activity 0.304) read?
**A.** The value was 0.249 µmol/min.

**Q.** What about the “Activity Inhibitor” value (amount of inhibitor 4.98 μmol, control activity 0.319) of the same compound?
**A.** The value was 0.215 µmol/min.

**Q.** What about the “Activity Inhibitor” value (amount of inhibitor 8.71 μmol, control activity 0.314) of the same compound?
**A.** Its value is 0.136 µmol/min.

**Q.** And the “Activity Inhibitor” value (amount of inhibitor 12.44 μmol, control activity 0.356)?
**A.** Its value is 0.069 µmol/min.

**Q.** And the “Activity Inhibitor” value (amount of inhibitor 18.66 μmol, control activity 0.32)?
**A.** Its value is 0.053 µmol/min.

**Q.** And the “Activity Inhibitor” value (amount of inhibitor 21.89 μmol, control activity 0.293)?
**A.** The value was 0.035 µmol/min.

**Q.** What about the “Activity Inhibitor” value (amount of inhibitor 24.88 μmol, control activity 0.278) of the same compound?
**A.** The value was 0 µmol/min.
